The values that follow come from patent publication US5763596A, “C-4' modified adenosine kinase inhibitors” (Metabasis Therapeutics, Inc., priority 1996, dated 1998).

The subject of data set [1] is Female SA rats. As to the kind of experiment: liver toxicity, serum SGOT, SGPT and total bilirubin. The following applies: 2 x 37.5 μmol/kg i.v. infusion (total 75 μmol/kg), 12 h after second dose. Type of data set: in vivo, rat. Details: unit not given here. Here is the method:
Female SA rats (150-200 g) were anesthetized with halothane and cannulated via the internal jugular vein. The animals were allowed to recover for 3 days. […] Twelve hours later, an additional 37.5 μmol kg was infused over 40 minutes (total dose=75 μmol/kg). Twelve hours after the second dose, the animals were anesthetized with halothane and exsanguinated through the descending aorta. Serum was prepared and liver enzymes (serum glutamic-oxaloacetic transaminase (SGOT), serum glutamic-pyruvic transaminase (SGPT)) and total bilirubin in the serum samples were determined by a commercial laboratory.

In data set [2] the test system is Rats. As to the kind of experiment: anti-inflammatory activity, carrageenan paw. Type of data set: in vivo, rat. The following applies: 10 mg/kg, swelling after 3 hours. Here is the method: Carrageenan (Type λ) was suspended in sterile PBS at 1% (w/v), autoclaved for 30 minutes, and stored at room temperature. Rats were pretreated with vehicle or AK inhibitor (10 mg/kg) by oral gavage or i.p. administration and the volume of the left hind paw was measured using a water displacement plethysmometer (Stoelting Co., Wood Dale, Ill.). One hour after oral treatment or 30 minutes after i.p. treatment, the rats were briefly anaesthetized, and 0.1 ml of the carrageenan solution was injected subcutaneously into the planar surface of the left hind paw. The ensuing paw swelling was measured by plethysmometry after 3 hours. The paw volume in milliliters was subtracted from the pre-injection paw volume. Data are presented in Table 8 as the percent inhibition of paw swelling in AK inhibitor treated animals, compared to vehicle treated control animals.

Take `O[C@@H]1[C@H](O)CO[C@H]1n1cc(-c2ccccc2)c2c(Nc3ccc(F)cc3)ncnc21` [compound 28]: in data set [1], the “average serum Total Bilirubin” value was found to be 0.07, the “average serum content of SGOT” value was determined as 61 and the “average serum content of SGPT” value is 23. For the same compound, in data set [2] (i.p., 30 min before carrageenan), the “Carrageenan Paw (% inh) i.p.” value was 52%. Also, the “Carrageenan Paw (% inh) p.o.” value in data set [2] (p.o., 1 h before carrageenan) came to 25%.
